Experimental data taken from patent US20090247472A1, “TYPE 1, 4-NAPHTOQUINONE COMPOUNDS, COMPOSITIONS COMPRISING THEM AND USE OF THESE COMPOUNDS AS ANTI-CANCER AGENTS” (FLUOFARMA, priority 2006, published 2009).

Experiments:
Assay type in all cases: cell-based
cells [1] = assay: Sub-G1 apoptosis test (DNA fragmentation, fluorescent DNA intercalator), Example 60; details: for Activity (sub-Gl): apoptosis, DNA fragmentation by fluorescence; for pro-apoptotic activity (in words): conclusion from the tests of Example 60
Method: The biological tests on activity (Sub-G1) relate to measurement of apoptosis. For this purpose, a fluorescent tracer, a DNA intercalator, makes it possible to display the fragmentation of the DNA. This fragmentation of the DNA results from the induction of the apoptotic phenomenon in the cells. The cells are incubated in the presence of various concentrations of the compounds presented above. The measurement of the apoptosis in the cells is monitored by measuring the fluorescence, thus making it possible to determine the activity of the compounds in […]. The activity tests (sub-G1) on certain compounds are presented below.

cells [2] = assay: Cell proliferation by multiplexed flow cytometry (dilution of a fluorescent tracer), Example 61
Method: (§1) The activities are measured by multiplexed flow cytometry tests, by coupling the measurement of apoptosis and cell proliferation. The cell proliferation is measured by monitoring the dilution of a specific fluorescent tracer during the cell divisions: • the cells are incubated in the presence of several concentrations of compounds, then • the measurements of apoptosis and cell proliferation are made simultaneously by the flow cytometry technique; specimen dose/response curves for the action of the compounds on apoptosis and on cell proliferation are obtained.

cells [3] = assay: Apoptosis (sub-G1) by multiplexed flow cytometry, Example 61
Method: as §1

[4] = conclusion from the tests of Example 61

SMILES	Activity (sub-Gl) (cells [1])	pro-apoptotic activity (in words) (cells [1])	Activity (prolif at 24 h) (cells [2]; cell proliferation at 24 h, flow cytometry)	anti-proliferative activity (in words) (cells [2]; [4])	Activity (sub-Gl) (cells [3]; apoptosis, multiplexed flow cytometry)	pro-apoptotic activity (in words) (cells [3]; [4])
CC1=C(CNC(=O)C(N)CO)C(=O)c2ccccc2C1=O.Cl [Example 18, 2-methyl-3-(L-serinyl-aminomethyl)-1,4-naphthoquinone chlorhydrate]	11.8 µM	pro-apoptotic activity	–	–	–	–
CC1=C(CNC(=O)C(N)C(C)C)C(=O)c2ccccc2C1=O.Cl [Example 19, 2-methyl-3-(D-valinyl-aminomethyl)-1,4-naphthoquinone chlorhydrate]	12 µM	pro-apoptotic activity	–	–	–	–
CC1=C(CNC(=O)C(N)C(C)O)C(=O)c2ccccc2C1=O [Example 20, 2-methyl-3-(L-threoninyl-aminomethyl)-1,4-naphthoquinone chlorohydrate]	12.2 µM	pro-apoptotic activity	–	–	–	–
CC1=C(CCNC(=O)CN)C(=O)c2ccccc2C1=O.Cl [Example 26, 2-methyl-3-(glycinyl-aminoethyl)-1,4-naphthoquinone chlorohydrate]	–	–	12.3 µM	anti-proliferative activity	11.8 µM	pro-apoptotic
CC1=C(CNC(=O)C(C)N)C(=O)c2ccccc2C1=O.Cl [Example 17, 2-methyl-3-(L-alaninyl-aminomethyl)-1,4-naphthoquinone chlorhydrate]	13.3 µM	pro-apoptotic activity	–	–	–	–
